Structures can show the parent of a compound that is named as a salt.
Target: T1, human V1a receptor (Homo sapiens, UniProt P37288)
T1 construct: expressed in transfected cells; host or cells: HEK293 cells, transiently transfected; cell membranes
Test: human V1a receptor binding studies (3H-Vasopressin, SPA beads)
Details: membranes from HEK293 cells transiently transfected with human V1a receptor, Ki calculated from IC50 by the Cheng-Prussoff equation, read-out: pKi (hV1a) (converted)
Method: The human V1a receptor was cloned by RT-PCR from total human liver RNA. The coding sequence was subcloned in an expression vector after sequencing to confirm the identity of the amplified sequence. […] Cell membranes were prepared from HEK293 cells transiently transfected with the expression vector and grown in 20 liter fermenters with the following protocol.
50 g of cells are resuspended in 30 ml freshly prepared ice cold Lyses buffer (50 mM HEPES, 1 mM EDTA, 10 mM magnesium dichloride adjusted to pH=7.4+complete cocktail of protease inhibitor (Roche Diagnostics)). Homogenized with Polytron for 1 min and solicited on ice for 2×2 minutes at 80% intensity (Vibrate solicitor). The preparation is centrifuged 20 min at 500 g at 4° C., the pellet is discarded and the supernatant centrifuged 1 hour at 43′000 g at 4° C. (19′000 rpm). The pellet is resuspended in 12.5 ml Lyses buffer+12.5 ml sucrose 20% and homogenized using a Polytron for 1-2 min. The protein concentration is determined by the Bradford method and aliquots are stored at −80° C. until use. For binding studies 60 mg Yttrium silicate SPA beads (Habersham®) are mixed with an aliquot of membrane in binding buffer (50 mM Tris, 120 mM sodium chloride, 5 mM potassium chloride, 2 mM calcium dichloride, 10 mM magnesium dichloride) for 15 minutes with mixing. 50 μl of bead/membrane mixture is then added to each well of a 96 well plate, followed by 50 μl of 4 nM 3H-Vasopressin (American Radiolabeled Chemicals). For total binding measurement 100 μl of binding buffer are added to the respective wells, for non-specific binding 100 μl of 8.4 mM cold vasopressin and for compound testing 100 μl of a serial dilution of each compound in 2% dimethyl sulfoxide. The plate is incubated 1 h at room temperature, centrifuged 1 min at 1000 g and counted on a Packard Top-Count. Non-specific binding counts are subtracted from each well and data is normalized to the maximum specific binding set at 100%. To calculate an IC50 the curve is fitted using a non-linear regression model (XLfit) and the Ki is calculated using the Cheng-Prussoff equation.

T1 sequence (P37288 whole entry): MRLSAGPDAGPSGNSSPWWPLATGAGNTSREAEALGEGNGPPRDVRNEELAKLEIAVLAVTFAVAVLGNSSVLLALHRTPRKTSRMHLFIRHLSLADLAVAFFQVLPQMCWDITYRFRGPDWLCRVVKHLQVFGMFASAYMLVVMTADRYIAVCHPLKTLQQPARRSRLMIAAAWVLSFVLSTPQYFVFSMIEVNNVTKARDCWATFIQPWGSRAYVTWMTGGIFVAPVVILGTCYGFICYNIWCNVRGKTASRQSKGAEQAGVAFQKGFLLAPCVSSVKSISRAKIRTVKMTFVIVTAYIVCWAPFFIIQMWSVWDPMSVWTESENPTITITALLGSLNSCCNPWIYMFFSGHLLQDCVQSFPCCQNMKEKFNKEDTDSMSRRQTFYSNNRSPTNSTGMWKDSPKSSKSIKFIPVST

Compound	Ki [nM]
CCc1cccc([C@H]2CC[C@H](c3nnc4n3-c3ccc(Cl)cc3CN(C(=O)OC(C)(C)C)C4)CC2)n1 [Example 7, trans-8-Chloro-1-[4-(6-ethyl-pyridin-2-yl)-cyclohexyl]-4H,6H-2,3,5,10b-tetraaza-benzo[e]azulene-5-carboxylic acid tert-butyl ester]	1
CC(C)(C)OC(=O)N1Cc2cc(Cl)ccc2-n2c(nnc2[C@H]2CC[C@H](c3cc(Cl)ccn3)CC2)C1 [Example 25, trans-8-Chloro-1-[4-(4-chloro-pyridin-2-yl)-cyclohexyl]-4H,6H-2,3,5,10b-tetraaza-benzo[e]azulene-5-carboxylic acid tert-butyl ester]	0.427
CN1Cc2cc(Cl)ccc2-n2c(nnc2[C@H]2CC[C@@H](c3ncccc3F)CC2)C1 [Example 47, cis-8-Chloro-1-[4-(3-fluoro-pyridin-2-yl)-cyclohexyl]-5-methyl-5,6-dihydro-4H-2,3,5,10b-tetraaza-benzo[e]azulene]	25.1
CN1Cc2cc(Cl)ccc2-n2c(nnc2[C@H]2CC[C@H](c3cccc(F)n3)CC2)C1 [Example 21, trans-8-Chloro-1-[4-(6-fluoro-pyridin-2-yl)-cyclohexyl]-5-methyl-5,6-dihydro-4H-2,3,5,10b-tetraaza-benzo[e]azulene]	1.82
Clc1ccc2c(c1)CNCc1nnc([C@H]3CC[C@H](c4cccnc4)CC3)n1-2 [Example 49, trans-8-Chloro-1-(4-pyridin-3-yl-cyclohexyl)-5,6-dihydro-4H-2,3,5,10b-tetraaza-benzo[e]azulene]	33.9
Cc1cc(C)nc([C@H]2CC[C@H](c3nnc4n3-c3ccc(Cl)cc3CN(C)C4)CC2)n1 [Example 65, trans-8-Chloro-1-[4-(4,6-dimethyl-pyrimidin-2-yl)-cyclohexyl]-5-methyl-5,6-dihydro-4H-2,3,5,10b-tetraaza-benzo[e]azulene]	2.29
Cc1cc(C)nc([C@H]2CC[C@H](c3nnc4n3-c3ccc(Cl)cc3CN(C(=O)OC(C)(C)C)C4)CC2)n1 [Example 63, trans-8-Chloro-1-[4-(4,6-dimethyl-pyrimidin-2-yl)-cyclohexyl]-4H,6H-2,3,5,10b-tetraaza-benzo[e]azulene-5-carboxylic acid tert-butyl ester]	0.398
CS(=O)(=O)N1Cc2cc(Cl)ccc2-n2c(nnc2[C@H]2CC[C@H](c3ncccc3F)CC2)C1 [Example 40, trans-8-Chloro-1-[4-(3-fluoro-pyridin-2-yl)-cyclohexyl]-5-methanesulfonyl-5,6-dihydro-4H-2,3,5,10b-tetraaza-benzo[e]azulene]	0.178
Fc1cccnc1[C@H]1CC[C@H](c2nnc3n2-c2ccc(Cl)cc2CNC3)CC1 [Example 29, trans-8-Chloro-1-[4-(3-fluoro-pyridin-2-yl)-cyclohexyl]-5,6-dihydro-4H-2,3,5,10b-tetraaza-benzo[e]azulene]	1.51
Cc1nccnc1[C@H]1CC[C@H](c2nnc3n2-c2ccc(Cl)cc2CN(C)C3)CC1 [Example 77, trans-8-Chloro-5-methyl-1-[4-(3-methyl-pyrazin-2-yl)-cyclohexyl]-5,6-dihydro-4H-2,3,5,10b-tetraaza-benzo[e]azulene]	5.13
Clc1ccc2c(c1)CNCc1nnc([C@H]3CC[C@H](c4cnccn4)CC3)n1-2 [Example 70, trans-8-Chloro-1-(4-pyrazin-2-yl-cyclohexyl)-5,6-dihydro-4H-2,3,5,10b-tetraaza-benzo[e]azulene]	15.1
COCCN1Cc2cc(Cl)ccc2-n2c(nnc2[C@H]2CC[C@H](c3ncccc3F)CC2)C1 [Example 35, trans-8-Chloro-1-[4-(3-fluoro-pyridin-2-yl)-cyclohexyl]-5-(2-methoxy-ethyl)-5,6-dihydro-4H-2,3,5,10b-tetraaza-benzo[e]azulene]	0.977
CC(C)(C)OC(=O)N1Cc2cc(Cl)ccc2-n2c(nnc2[C@H]2CC[C@H](c3ccc(F)cn3)CC2)C1 [Example 22, trans-8-Chloro-1-[4-(5-fluoro-pyridin-2-yl)-cyclohexyl]-4H,6H-2,3,5,10b-tetraaza-benzo[e]azulene-5-carboxylic acid tert-butyl ester]	0.302
CC(C)(C)OC(=O)N1Cc2cc(Cl)ccc2-n2c(nnc2[C@H]2CC[C@H](c3cccnc3F)CC2)C1 [Example 54, trans-8-Chloro-1-[4-(2-fluoro-pyridin-3-yl)-cyclohexyl]-4H,6H-2,3,5,10b-tetraaza-benzo[e]azulene-5-carboxylic acid tert-butyl ester]	1
Cc1cnc(C)c([C@H]2CC[C@H](c3nnc4n3-c3ccc(Cl)cc3CN(C)C4)CC2)n1 [Example 80, trans-8-Chloro-1-[4-(3,6-dimethyl-pyrazin-2-yl)-cyclohexyl]-5-methyl-5,6-dihydro-4H-2,3,5,10b-tetraaza-benzo[e]azulene]	7.24
CN(C)CC(=O)N1Cc2cc(Cl)ccc2-n2c(nnc2[C@H]2CC[C@H](c3ncccc3F)CC2)C1 [Example 39, trans-1-{8-Chloro-1-[4-(3-fluoro-pyridin-2-yl)-cyclohexyl]-4H,6H-2,3,5,10b-tetraaza-benzo[e]azulen-5-yl}-2-dimethylamino-ethanone formate]	2.51
Clc1ccc2c(c1)CNCc1nnc([C@H]3CC[C@H](c4cccc(Cl)n4)CC3)n1-2 [Example 17, trans-8-Chloro-1-[4-(6-chloro-pyridin-2-yl)-cyclohexyl]-5,6-dihydro-4H-2,3,5,10b-tetraaza-benzo[e]azulene]	2.82
CC(C)c1cccc([C@H]2CC[C@H](c3nnc4n3-c3ccc(Cl)cc3CN(C(=O)OC(C)(C)C)C4)CC2)n1 [Example 10, trans-8-Chloro-1-[4-(6-isopropyl-pyridin-2-yl)-cyclohexyl]-4H,6H-2,3,5,10b-tetraaza-benzo[e]azulene-5-carboxylic acid tert-butyl ester]	2.19
Clc1ccc2c(c1)CNCc1nnc([C@H]3CC[C@H](c4ncccn4)CC3)n1-2 [Example 59, trans-8-Chloro-1-(4-pyrimidin-2-yl-cyclohexyl)-5,6-dihydro-4H-2,3,5,10b-tetraaza-benzo[e]azulene]	9.33
CCc1cccc([C@H]2CC[C@H](c3nnc4n3-c3ccc(Cl)cc3CN(C)C4)CC2)n1 [Example 9, trans-8-Chloro-1-[4-(6-ethyl-pyridin-2-yl)-cyclohexyl]-5-methyl-5,6-dihydro-4H-2,3,5,10b-tetraaza-benzo[e]azulene]	1.1
CCc1cccc([C@H]2CC[C@H](c3nnc4n3-c3ccc(Cl)cc3CNC4)CC2)n1 [Example 8, trans-8-Chloro-1-[4-(6-ethyl-pyridin-2-yl)-cyclohexyl]-5,6-dihydro-4H-2,3,5,10b-tetraaza-benzo[e]azulene]	44.7
Cc1nccnc1[C@H]1CC[C@H](c2nnc3n2-c2ccc(Cl)cc2CNC3)CC1 [Example 76, trans-8-Chloro-1-[4-(3-methyl-pyrazin-2-yl)-cyclohexyl]-5,6-dihydro-4H-2,3,5,10b-tetraaza-benzo[e]azulene]	44.7
CN1Cc2cc(F)ccc2-n2c(nnc2[C@H]2CC[C@H](c3ncccc3F)CC2)C1 [Example 44, trans-8-Fluoro-[4-(3-fluoro-pyridin-2-yl)-cyclohexyl]-5-methyl-5,6-dihydro-4H-2,3,5,10b-tetraaza-benzo[e]azulene]	8.91
Fc1cccnc1[C@H]1CC[C@H](c2nnc3n2-c2ccc(Cl)cc2CN(CC(F)F)C3)CC1 [Example 34, trans-8-Chloro-5-(2,2-difluoro-ethyl)-[4-(3-fluoro-pyridin-2-yl)-cyclohexyl]-5,6-dihydro-4H-2,3,5,10b-tetraaza-benzo[e]azulene]	0.186
CC(C)(C)OC(=O)N1Cc2cc(Cl)ccc2-n2c(nnc2[C@H]2CC[C@H](c3cccc(F)n3)CC2)C1 [Example 19, trans-8-Chloro-1-[4-(6-fluoro-pyridin-2-yl)-cyclohexyl]-4H,6H-2,3,5,10b-tetraaza-benzoazulene-5-carboxylic acid tert-butyl ester]	0.603
O=C(CO)N1Cc2cc(Cl)ccc2-n2c(nnc2[C@H]2CC[C@H](c3ncccc3F)CC2)C1 [Example 38, trans-1-{8-Chloro-1-[4-(3-fluoro-pyridin-2-yl)-cyclohexyl]-4H,6H-2,3,5,10b-tetraaza-benzo[e]azulen-5-yl}-2-hydroxy-ethanone]	2.29
CN1Cc2cc(Cl)ccc2-n2c(nnc2[C@H]2CC[C@H](c3cnccn3)CC2)C1 [Example 71, trans-8-Chloro-5-methyl-1-(4-pyrazin-2-yl-cyclohexyl)-5,6-dihydro-4H-2,3,5,10b-tetraaza-benzo[e]azulene]	1.7
Fc1cccc([C@H]2CC[C@H](c3nnc4n3-c3ccc(Cl)cc3CNC4)CC2)n1 [Example 20, trans-8-Chloro-1-[4-(6-fluoro-pyridin-2-yl)-cyclohexyl]-5,6-dihydro-4H-2,3,5,10b-tetraaza-benzo[e]azulene]	16.6
